Experimental data: ChEMBL document CHEMBL5532660, “Lead Optimization of BIBR1591 To Improve Its Telomerase Inhibitory Activity: Design and Synthesis of Novel Four Chemical Series with In Silico, In Vitro, and In Vivo Preclinical Assessments” (J Med Chem, 2024)
pIC50: −log10 of the molar value.

Assays:
NCI-H460 = experiment: Cytotoxicity against human NCI-H460 cells overexpressing telomerase assessed as inhibition of cell growth incubated for 48 hrs by SRB assay; assay type: functional, cell-based; conditions: NCI-H460, 48 h
[1] = target: Telomerase reverse transcriptase (Homo sapiens) (UniProt O14746); experiment: Inhibition of telomerase (unknown origin) by RT-qPCR analysis relative to control; set-up: concentration or dose not given beside the values; conditions: concentration not given here
NCI-H1299 = experiment: Cytotoxicity against human NCI-H1299 cells overexpressing telomerase assessed as inhibition of cell growth incubated for 48 hrs by SRB assay; assay type: functional, cell-based; conditions: NCI-H1299, 48 h
A549 = experiment: Cytotoxicity against human A549 cells overexpressing telomerase assessed as inhibition of cell growth incubated for 48 hrs by SRB assay; assay type: functional, cell-based; conditions: A549, 48 h
Huh-7 [2] = experiment: Induction of apoptosis in human Huh-7 cells assessed as downregulation of BCL-2 protein expression by measuring fold change by ELISA relative to control; assay type: functional
[3] = Cytotoxicity against HSF cells assessed as reduction in cell viability upto 50 ug/ml incubated for 48 hrs by SRB assay; assay type: toxicity, cell-based; conditions: human, dose < 50 µg/ml
Huh-7 [4] = experiment: Induction of apoptosis in human Huh-7 cells assessed as upregulation of p53 protein expression by measuring fold change by ELISA relative to control; assay type: functional
Huh-7 [5] = experiment: Cytotoxicity against human Huh-7 cells overexpressing telomerase assessed as inhibition of cell growth incubated for 48 hrs by SRB assay; assay type: functional, cell-based; conditions: Huh-7, 48 h
Huh-7 [6] = experiment: Induction of apoptosis in human Huh-7 cells assessed as upregulation of BAX protein expression by measuring fold change by ELISA relative to control; assay type: functional
HepG2 = experiment: Cytotoxicity against human HepG2 cells overexpressing telomerase assessed as inhibition of cell growth incubated for 48 hrs by SRB assay; assay type: functional, cell-based; conditions: HepG2, 48 h
Ehrlich [7] = experiment: Antitumor activity against mouse EAC cells implanted in Swiss albino mouse assessed as platelet count at 5 mg/kg, ip administered for 2 weeks (reference value: 963.66 +/- 29.63 x10^3/mm3); assay type: functional
Ehrlich [8] = experiment: Antitumor activity against mouse EAC cells implanted in Swiss albino mouse assessed as reduction in total leukocytes count at 5 mg/kg, ip administered for 2 weeks relative to control; assay type: functional; set-up: scale not given: the % may be the effect or the level left
Ehrlich [9] = experiment: Antitumor activity against mouse EAC cells implanted in Swiss albino mouse assessed as increase in hemoglobin level at 5 mg/kg, ip administered for 2 weeks relative to control; assay type: functional
Ehrlich [10] = experiment: Antitumor activity against mouse EAC cells implanted in Swiss albino mouse assessed as increase in serum SOD level at 5 mg/kg, ip administered for 2 weeks by ELISA relative to control; assay type: functional
Ehrlich [11] = experiment: Antitumor activity against mouse EAC cells implanted in Swiss albino mouse assessed as reduction in TNF-alpha level at 5 mg/kg, ip administered for 2 weeks by ELISA relative to control; assay type: functional; set-up: scale not given: the % may be the effect or the level left
Ehrlich [12] = experiment: Antitumor activity against mouse EAC cells implanted in Swiss albino mouse assessed as increase in erythrocyte count at 5 mg/kg, ip administered for 2 weeks relative to control; assay type: functional
Ehrlich [13] = experiment: Antitumor activity against mouse EAC cells implanted in Swiss albino mouse assessed as necrosis at 5 mg/kg, ip administered for 2 weeks by H and E staining based light microscopic analysis (reference value: 0 to 25%); assay type: functional
Ehrlich [14] = experiment: Antitumor activity against mouse EAC cells implanted in Swiss albino mouse assessed as reduction in tumor weight at 5 mg/kg, ip administered for 2 weeks and measured on day 5, 10 and 14 relative to control; assay type: functional; set-up: scale not given: the % may be the effect or the level left
Ehrlich [15] = experiment: Antitumor activity against mouse EAC cells implanted in Swiss albino mouse assessed as erythrocyte count at 5 mg/kg, ip administered for 2 weeks (reference value: 4.1 +/- 0.23 x 10^6/mm3); assay type: functional
Ehrlich [16] = experiment: Antitumor activity against mouse EAC cells implanted in Swiss albino mouse assessed as reduction in tumor volume at 5 mg/kg, ip administered for 2 weeks and measured on day 5, 10 and 14 relative to control; assay type: functional; set-up: scale not given: the % may be the effect or the level left
Ehrlich [17] = experiment: Antitumor activity against mouse EAC cells implanted in Swiss albino mouse assessed as total leukocyte count at 5 mg/kg, ip administered for 2 weeks (reference value: 7.11 +/- 0.27 x10^3/mm3); assay type: functional
Ehrlich [18] = experiment: Antitumor activity against mouse EAC cells implanted in Swiss albino mouse assessed as appearance of granulation tissue at 5 mg/kg, ip administered for 2 weeks by H and E staining based light microscopic analysis (reference value: 0 to 25%); assay type: functional
Ehrlich [19] = experiment: Antitumor activity against mouse EAC cells implanted in Swiss albino mouse assessed as increase in caspase-3 level in serum at 5 mg/kg, ip administered for 2 weeks by ELISA relative to control; assay type: functional
Ehrlich [20] = experiment: Antitumor activity against mouse EAC cells implanted in Swiss albino mouse assessed as mean corpuscular hemoglobin at 5 mg/kg, ip administered for 2 weeks (reference value: […] +/- 0.48 pg); assay type: functional
Ehrlich [21] = experiment: Antitumor activity against mouse EAC cells implanted in Swiss albino mouse assessed as reduction in total platelet count at 5 mg/kg, ip administered for 2 weeks relative to control; assay type: functional; set-up: scale not given: the % may be the effect or the level left
Ehrlich [22] = experiment: Antitumor activity against mouse EAC cells implanted in Swiss albino mouse assessed as apoptotic cells at 5 mg/kg, ip administered for 2 weeks by H and E staining based light microscopic analysis (reference value: 25 to 50%); assay type: functional
Ehrlich [23] = experiment: Antitumor activity against mouse EAC cells implanted in Swiss albino mouse assessed as inflammatory cell infiltration at 5 mg/kg, ip administered for 2 weeks by H and E staining based light microscopic analysis (reference value: 0 to 25%); assay type: functional
Ehrlich [24] = experiment: Antitumor activity against mouse EAC cells implanted in Swiss albino mouse assessed as hemoglobin level at 5 mg/kg, ip administered for 2 weeks (reference value: 9.25 +/- 0.26 g/dL); assay type: functional
Ehrlich [25] = experiment: Antitumor activity against mouse EAC cells implanted in Swiss albino mouse assessed as intact anaplastic tumor cells at 5 mg/kg, ip administered for 2 weeks by H and E staining based light microscopic analysis (reference value: 75 to 100%); assay type: functional
Ehrlich [26] = experiment: Antitumor activity against mouse EAC cells implanted in Swiss albino mouse assessed as mean corpuscular volume at 5 mg/kg, ip administered for 2 weeks (reference value: 46.78 +/- 0.43 fL); assay type: functional

Telomerase reverse transcriptase (Homo sapiens), sequence (O14746 whole entry): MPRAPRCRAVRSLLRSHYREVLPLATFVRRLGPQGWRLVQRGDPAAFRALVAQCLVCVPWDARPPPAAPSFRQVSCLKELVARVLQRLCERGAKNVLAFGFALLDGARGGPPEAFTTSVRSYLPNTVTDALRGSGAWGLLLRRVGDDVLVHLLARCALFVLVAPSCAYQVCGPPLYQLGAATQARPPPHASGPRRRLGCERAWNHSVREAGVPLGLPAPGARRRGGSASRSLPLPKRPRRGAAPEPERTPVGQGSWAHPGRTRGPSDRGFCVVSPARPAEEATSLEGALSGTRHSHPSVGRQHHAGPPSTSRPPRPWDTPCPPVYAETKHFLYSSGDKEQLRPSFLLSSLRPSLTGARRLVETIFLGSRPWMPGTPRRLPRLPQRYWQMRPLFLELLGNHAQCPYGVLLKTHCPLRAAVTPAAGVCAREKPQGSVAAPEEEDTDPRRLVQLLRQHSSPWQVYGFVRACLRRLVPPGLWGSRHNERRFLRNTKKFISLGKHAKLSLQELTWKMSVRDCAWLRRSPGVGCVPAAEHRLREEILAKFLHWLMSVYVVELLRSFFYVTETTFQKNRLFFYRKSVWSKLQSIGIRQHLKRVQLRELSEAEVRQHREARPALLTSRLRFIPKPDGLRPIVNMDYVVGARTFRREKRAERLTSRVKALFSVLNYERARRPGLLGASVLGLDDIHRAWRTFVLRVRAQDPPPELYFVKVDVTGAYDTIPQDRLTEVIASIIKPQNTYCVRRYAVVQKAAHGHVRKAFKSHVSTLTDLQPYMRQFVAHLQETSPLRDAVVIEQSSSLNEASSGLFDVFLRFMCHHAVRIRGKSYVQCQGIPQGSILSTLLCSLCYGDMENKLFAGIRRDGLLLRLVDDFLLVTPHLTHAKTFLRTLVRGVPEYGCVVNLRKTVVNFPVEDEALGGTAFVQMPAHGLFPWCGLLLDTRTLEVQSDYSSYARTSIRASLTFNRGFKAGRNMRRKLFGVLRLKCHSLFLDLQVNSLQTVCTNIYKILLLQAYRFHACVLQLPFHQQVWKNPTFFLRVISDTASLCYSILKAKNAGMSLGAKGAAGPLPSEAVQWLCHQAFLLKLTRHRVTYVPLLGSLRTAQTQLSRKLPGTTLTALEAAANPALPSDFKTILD

Question: With `N#Cc1c(O)nc(SCC(=O)Nc2sc3c(c2C#N)CCC3)nc1-c1cccnc1` as the compound, how does the pIC50 (NCI-H460) read?
Answer: 4.35

Question: What about the inhibition [1] of the same compound?
Answer: 58.6%

Question: What about the pIC50 (NCI-H1299) of the same compound?
Answer: 4.54

Question: What about the pIC50 (A549) of the same compound?
Answer: 4.05

Question: What about the “fold change (FC)” value (Huh-7 [2]) of the same compound?
Answer: 0.8

Question: And the Activity [3]?
Answer: Non-Toxic

Question: And the “fold change (FC)” value (Huh-7 [4])?
Answer: 1.07

Question: What about the pIC50 (Huh-7 [5]) of the same compound?
Answer: 4.60

Question: And the “fold change (FC)” value (Huh-7 [6])?
Answer: 1.08

Question: And the pIC50 (HepG2)?
Answer: 4.39

Question: For `CC(=O)c1ccc(NC(=O)CSc2nc(O)c(C#N)c(-c3cccnc3)n2)cc1`, which inhibition [1] is on record?
Answer: 30.2%

Question: With `N#Cc1c(O)nc(SCC(=O)Nc2ccc(Cl)c(C(F)(F)F)c2)nc1-c1cccnc1` as the compound, how does the inhibition [1] read?
Answer: 8.91%

Question: With `C/C(=C\C(=O)Nc1ccc(N2CCOCC2)cc1C(=O)O)c1ccc2ccccc2c1` as the compound, how does the inhibition [1] read?
Answer: 51.6%

Question: Which inhibition [1] does the source give for `N#Cc1c(O)nc(SCC(=O)Nc2nc3ccccc3s2)nc1-c1cccnc1` here?
Answer: 32.1%

Question: For `N#Cc1c(O)nc(SCC(=O)Nc2nc3ccccc3[nH]2)nc1-c1cccnc1`, which inhibition [1] is on record?
Answer: 32.6%

Question: With `N#Cc1c(O)nc(SCC(=O)Nc2sc3c(c2C#N)CCCC3)nc1-c1cccnc1` as the compound, how does the pIC50 (NCI-H460) read?
Answer: 4.39

Question: What about the inhibition [1] of the same compound?
Answer: 55.6%

Question: And the pIC50 (NCI-H1299)?
Answer: 4.64

Question: And the pIC50 (A549)?
Answer: 4.07

Question: What about the “fold change (FC)” value (Huh-7 [2]) of the same compound?
Answer: 0.77

Question: What about the Activity [3] of the same compound?
Answer: Non-Toxic

Question: What about the “fold change (FC)” value (Huh-7 [4]) of the same compound?
Answer: 1.13

Question: And the pIC50 (Huh-7 [5])?
Answer: 4.48

Question: What about the “fold change (FC)” value (Huh-7 [6]) of the same compound?
Answer: 1.14

Question: And the pIC50 (HepG2)?
Answer: 4.74

Question: Which results are given for `COc1cccc2c1C(=O)c1c(O)c3c(c(O)c1C2=O)C[C@@](O)(C(=O)CO)C[C@@H]3O[C@H]1C[C@H](N)[C@H](O)[C@H](C)O1` [DOXORUBICIN]?
Answer: Activity (Ehrlich [7]): 530.5 10^3/mm3; Activity (Ehrlich [8]): 37.27%; Activity (Ehrlich [9]): 21.94%; Activity (Ehrlich [10]): 129.54%; Activity (Ehrlich [11]): 64.14%; Activity (Ehrlich [12]): 44.63%; Activity (Ehrlich [13]): 50%; Activity (Ehrlich [14]): 62.52%; Activity (Ehrlich [15]): 5.93 10^6/mm3; Activity (Ehrlich [16]): 57.05%; Activity (Ehrlich [17]): 4.46 10^3/mm3; Activity (Ehrlich [18]): 0%; Activity (Ehrlich [19]): 64.95%; Activity (Ehrlich [20]): 16.43 pg; Activity (Ehrlich [21]): 44.94%; Activity (Ehrlich [22]): 50%; Activity (Ehrlich [23]): 0%; Activity (Ehrlich [24]): 11.28 g/dL; Activity (Ehrlich [25]): 25%; Activity (Ehrlich [26]): 51.14 fL

Question: With `C/C(=C\C(=O)Nc1ccccc1C(=O)O)c1ccc2ccccc2c1` as the compound, how does the inhibition [1] read?
Answer: 69.6%

Question: Which inhibition [1] does the source give for `COc1ccc(NC(=O)CSc2nc(O)c(C#N)c(-c3cccnc3)n2)cc1` here?
Answer: 46.1%

Question: Which inhibition [1] does the source give for `N#Cc1c(O)nc(SCC(=O)Nc2cc(Cl)ccc2Cl)nc1-c1cccnc1` here?
Answer: 5.58%

Question: With `N#Cc1c(O)nc(SCC(=O)Nc2cccc([N+](=O)[O-])c2)nc1-c1cccnc1` as the compound, how does the inhibition [1] read?
Answer: 28.1%

Question: Which inhibition [1] does the source give for `N#Cc1ccc(NC(=O)CSc2nc(O)c(C#N)c(-c3cccnc3)n2)cc1` here?
Answer: 21.7%

Question: With `N#Cc1c(O)nc(SCC(=O)Nc2cccc3ccccc23)nc1-c1cccnc1` as the compound, how does the inhibition [1] read?
Answer: 34.5%

Question: With `N#Cc1c(O)nc(SCC(=O)Nc2ccc3ccccc3c2)nc1-c1cccnc1` as the compound, how does the inhibition [1] read?
Answer: 26%
